What was measured:
prostaglandin formation = experiment: Inhibition of prostaglandin formation (general statement)
[1] = tested on: Collagen-Induced Platelet Aggregation; experiment: Inhibition of collagen-induced platelet aggregation in human platelet-rich plasma; type: cell-based
Method: (§1) Venous blood was collected from human volunteers in siliconized 20 ml. […] Platelet rich plasma (PRP) was separated from the red blood cells by centrifugation at 180×g for 15 minutes at room temperature. Platelet poor plasma (PPP) was prepared by centrifuging PRP at 1000×g for 2 minutes.
(§2) Techniques established by Born et al., J. Physiol. […] PRP (1 ml.) was added to a siliconized cuvette containing a siliconized stirring bar and placed in a densitometer maintained at 37° C. and stirred at 1000 RPM. Various concentrations of test compounds were added in 50 μl of saline and incubated with PRP for 5 minutes. Aggregation was initiated by the addition of sufficient concentrations of ADP (Sigma Chemical Co.), epinephrine HCl (Parke, Davis & Co., Detroit, Michigan), or human mammary gland collagen (obtained from Roosevelt Hospital, N.Y.) to give about 60% of maximum aggregation response. The light transmission through PPP was used to determine maximum response. The percent inhibition of aggregation caused by the drug was calculated from the strip chart recordings at the point of maximum collagen response.

[2] = Toxicity (general statement)
[3] = tested on: human blood-platelet aggregation; experiment: Inhibition of human blood-platelet aggregation (general statement)
[4] = Ulcerogenicity (general statement)
platelet aggregation = conditions: cited from earlier work
thromboxanes = conditions: submicrogram concentrations of PGE2; cited from earlier work
[5] = Gastric ulcer induction (rats); set-up: species or system male Wistar rats; conditions: rat, in vivo, po, rats; read-out: Ulcer incidence ED50
Method: The test is a modification of that described by Brodie et al., Gastroenterology, 53, pages 604-610 (1967). Male Wistar rats (Royal Hart Laboratories) were deprived of food for 18 hours prior to testing. Tap water was permitted ad libitum. Test compounds were administered orally four hours to autopsy. The rats were sacrificed under ethyl ether anesthesia, opened along the ventral midline and the stomachs removed. The stomach was divided along the lesser curvature, everted, rinsed in saline, and examined for the presence of focal hemorrhage. Ulcers were rated on an all or none basis for incidence and, in addition, each stomach is graded for severity of ulcers formed. Ulcer scores: 0=none, 1=trace, 2=mild, 3=moderate, and 4=severe. The results of the ulcer scores obtained were subjected to statistical analysis by the student `t` test.

ADP induced aggregation = experiment: Inhibition of ADP-induced platelet aggregation (second wave) in human platelet-rich plasma; type: cell-based; conditions: incubation in human citrated platelet-rich plasma
Method: as §1, §2

[6] = tested on: Epinephrine induced aggregation; experiment: Inhibition of epinephrine-induced platelet aggregation (second wave) in human platelet-rich plasma; type: cell-based; conditions: incubation in human citrated platelet-rich plasma
Method: as §1, §2

[7] = tested on: Collagen-Induced Platelet Aggregation; experiment: Effect of compounds in whole blood: collagen-induced platelet aggregation after incubation in whole blood; type: cell-based, human; conditions: incubation in whole blood
Method: Aliquots of citrated human blood (10 ml.) were exposed to different concentrations of the "nitrile" by mechanically shaking at room temperature for 5 minutes.

[8] = tested on: arachidonic acid induced diarrhea; experiment: Arachidonic acid diarrhea prevention (mice); type: in vivo, Carworth Farm CF-1 male mice
Method: Carworth Farm CF-1 male mice weighing 18-20 grams were administered the test compound by either the oral or intraperitoneal route one hour prior to the intraperitoneal administration of 4 mg/kg of arachidonic acid (Hoffmann-La Roche Inc.). […] The diarrhea was graded on paper towels as follows: 0=solid pellet or no bowel movement; 1=slightly soft pellet with little or no wet ring formation; 2=moderately soft pellet with definite wet ring formation; 3=soft pellet with large wet ring formation; and 4=amorphous pellet with very large wet ring formation.
The calculation of the ED50 was made according to the method of Miller et al., Proc. Soc.

Acute toxicity in mice = conditions: mouse, in vivo
Method: CF-IS mice of both sexes weighing 17-25 grams were used. The compounds were ground in a mortar and suspended in 5% gum acacia for oral or intraperitoneal administration. Eight to ten mice were used per dose level. […] The LD50 was calculated by the method of Miller et al., Proc. Soc. Exp. Biol. Med., 57, pages 261-264 (1944).

[9] = tested on: platelet prostaglandin formation; conditions: cited from earlier work
serum PGF2α = experiment: Inhibition of prostaglandin formation: serum PGF2α by radioimmunoassay (rats); type: in vivo, male rats; conditions: rats; for ED50: Rattus norvegicus, 1 h; for serum PGF2α ED50: 60 min
[10] = tested on: biosynthesis of thromboxanes; conditions: cited from earlier work
[11] = incubation in human citrated platelet-rich plasma, read-out: IC50 collagen

With `NC(=O)c1[nH]c2ccc(C(O)(C(F)(F)F)C(F)(F)F)cc2c1-c1ccccc1` [amide, 3-Phenyl-5-[2,2,2-trifluoro-1-hydroxy-1-(trifluoromethyl)ethyl]indole-2-carboxamide] the “inhibition of prostaglandin formation (in words)” value (prostaglandin formation) was “inhibit prostaglandin formation”, the IC50 ([1]; Homo sapiens, Platelet, Table 7, read-out: Inhibition of collagen-induced platelet aggregation, Activity IC50) was 3000 nM and the “toxicity (in words)” value [2] was “low in toxicity”. For the same molecule, the “inhibition of human blood-platelet aggregation (in words)” value [3] was “inhibit prostaglandin formation and human blood-platelet aggregation” and the “ulcerogenicity (in words)” value [4] was “non-ulcerogenic”.
In the case of `CCCCC[C@H](O)/C=C/[C@H]1[C@H](O)CC(=O)[C@H]1CCCCCCC(=O)O` [Example 8-iso-PGE1, (8β,11α,13E,15S)-11,15-dihydroxy-9-oxoprost-13-en-1-oic acid], the “inhibition of platelet aggregation (in words)” value (platelet aggregation) is listed as “demonstrated to inhibit platelet aggregation”.
For `CCCCC[C@H](O)/C=C/[C@H]1[C@H](O)CC(=O)[C@@H]1CCCCCCC(=O)O` [PGE1, (11,13E,15S)-11,15-dihydroxy-9-oxoprost-13-en-1-oic acid], the “inhibition of platelet aggregation (in words)” value (platelet aggregation) is given as “demonstrated to inhibit platelet aggregation”.
In the case of `CCCCC[C@H](O)/C=C/[C@H]1[C@H](O)CC(=O)[C@@H]1C/C=C\CCCC(=O)O` [PGE2], the “potentiation of biological effects of thromboxanes” value (thromboxanes) is listed as no more than 700%.
Molecule `COc1ccc2c(c1)c(CC(=O)O)c(C)n2C(=O)c1ccc(Cl)cc1` [Indomethacin, reference compound] has a TD50 at 4 h [5] of 3 mg/kg, an IC50 [1, 11] of 1000 nM and an IC50 (ADP induced aggregation) of 100 nM. For the same molecule, the IC50 [6] was 2000 nM, the IC50 ([7]; Homo sapiens, Platelet) was 400 nM and the ED50 ([8]; Mus musculus, po) was 0.8 mg/kg. The LD50 at 120 h (Acute toxicity in mice; ip) was 193 mg/kg, the LD50 at 120 h (Acute toxicity in mice; po) was 430 mg/kg and the “inhibition of platelet prostaglandin formation (in words)” value [9] was “known inhibitors of platelet prostaglandin formation”. It also gave an ED50 (serum PGF2α; ip) of less than 1 mg/kg and an ED50 (serum PGF2α; po) of 1 mg/kg.
Work on `CC(=O)Oc1ccccc1C(=O)O` [Aspirin, reference compound] yielded a TD50 at 4 h [5] of 49 mg/kg, an IC50 [1, 11] of 30000 nM and an IC50 (ADP induced aggregation) of 30000 nM. The “inhibition of the biosynthesis of thromboxanes (in words)” value [10] was “inhibits the biosynthesis of thromboxanes”, the IC50 [6] was 17000 nM and the IC50 [7] was 1500 nM. The “arachidonic acid induced diarrhea ED50” value ([8]; p.o.) was 1.3 mg/kg, the LD50 at 120 h (Acute toxicity in mice; po) was greater than 1000 mg/kg and the “inhibition of platelet prostaglandin formation (in words)” value [9] was “known inhibitors of platelet prostaglandin formation”. The “serum PGF2α ED50” value (serum PGF2α; i.p.) was 10 mg/kg and the “serum PGF2α ED50” value (serum PGF2α; p.o.) was 10 mg/kg.
For `CCCCCC[C@H](O)/C=C/[C@H]1[C@H](O)CC(=O)[C@@H]1CCCCCCC(=O)O` [ω-homo PGE1, (11α,13E,15S)-11,15-dihydroxy-20-methyl-9-oxoprost-13-en-1-oic acid], the “inhibition of platelet aggregation (in words)” value (platelet aggregation) is listed as “demonstrated to inhibit platelet aggregation”.
